Reference: patent US8952054B2, “Small molecule inhibitors of MUC1 and methods of identifying the same” (Dana-Farber Cancer Institute, Inc., priority 2010, dated 2015)

Tested on: HCC1937 cells
Assay: HCC1937 viability (MTS)
Assay type: cell-based, human
Conditions: HCC1937 (low to undetectable MUC1-C), 3 d
Protocol: FIGS. 16A-D—Effects of apigenin on breast cancer cells without and with endogenous MUC1 expression. (FIG. 16A) Lysates from human MCF-7, HCC1937 and BT474 cells were immunoblotted with the indicated antibodies. (FIG. 16B) BT474 cells were treated with indicated concentrations of apigenin and baicalein for 3 d, washed and then treated for an additional 3 d. Lysates were immunoblotted with the indicated antibodies. (FIG. 16C) BT474 (triangles) and HCC1937 (squares) cells were treated with apigenin for 3 d. Viable cell numbers were determined by MTS assay. The results (mean+SD of 3 determinations) are expressed as percentage of control growth in the presence of DMSO. (FIG. 16D) BT474 cells were plated at a density of 5000 cells/6 cm dish. At 24 h after seeding, DMSO or apigenin at concentrations of 25, 50 and 75 μM was added to the medium. After 2 weeks, colonies were stained with crystal violet. The results (mean+SD of 3 determinations) are expressed as percentage of control colony formation in the presence of DMSO.

## O=c1cc(-c2ccc(O)cc2)oc2cc(O)cc(O)c12 [Apigenin, 4′,5,7-trihydroxyflavone]
  viability (MTS): not
